Values quoted from earlier work as cited in PMC7993274 (Clinical and Translational Science, 2020).

What was measured:
[1] = levels peaking 2 weeks post‐treatment; cited from earlier work
[2] = patients with rheumatoid arthritis (N = 3,492); cited from earlier work

## CCS(=O)(=O)N1CC(CC#N)(n2cc(-c3ncnc4[nH]ccc34)cn2)C1 [baricitinib]
[1]
  effect on platelet counts: transiently increase platelet counts
[2]
  venous thromboembolism incidence rate: 0.5 per 100 patient‐years
